Measurements as given in the supplement of paper PMC10307832.

Legend:
Assay in all cases: relative viability (nuclei count vs DMSO), 5 days (fraction); higher = more cells survive
Bexarotene + Olaparib = compound: C=C(c1ccc(C(=O)O)cc1)c1cc2c(cc1C)C(C)(C)CCC2(C)C [Bexarotene] + O=C(c1cc(Cc2n[nH]c(=O)c3ccccc23)ccc1F)N1CCN(C(=O)C2CC2)CC1 [Olaparib] (partner 8 µM)
Summary of the method: (§1)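 Lung cancer cell lines in 1536-well plates got either a single drug or a fixed anchor-drug dose together with five library-drug doses (not always all listed) in √10 steps, by pin tool, on the day after seeding. Nuclei were counted after 5 days, and relative viability is the treated-to-vehicle ratio of nuclei counts. Values are medians of duplicate plates.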

Bexarotene + Bortezomib = compound: C=C(c1ccc(C(=O)O)cc1)c1cc2c(cc1C)C(C)(C)CCC2(C)C [Bexarotene] + CC(C)C[C@H](NC(=O)[C@H](Cc1ccccc1)NC(=O)c1cnccn1)B(O)O [Bortezomib] (partner 0.002 µM)
Summary of the method: as §1

Bexarotene + Trametinib = compound: C=C(c1ccc(C(=O)O)cc1)c1cc2c(cc1C)C(C)(C)CCC2(C)C [Bexarotene] + CC(=O)Nc1cccc(-n2c(=O)n(C3CC3)c(=O)c3c(Nc4ccc(I)cc4F)n(C)c(=O)c(C)c32)c1 [Trametinib] (partner 0.02 µM)
Summary of the method: as §1

Bexarotene + Pictilisib = compound: C=C(c1ccc(C(=O)O)cc1)c1cc2c(cc1C)C(C)(C)CCC2(C)C [Bexarotene] + CS(=O)(=O)N1CCN(Cc2cc3nc(-c4cccc5[nH]ncc45)nc(N4CCOCC4)c3s2)CC1 [Pictilisib] (partner 1 µM)
Summary of the method: as §1

Cell Line | relative viability (Bexarotene + Olaparib; first compound 0.08 µM) | relative viability (Bexarotene + Olaparib; first compound 0.253 µM) | relative viability (Bexarotene + Olaparib; first compound 0.8 µM) | relative viability (Bexarotene + Olaparib; first compound 2.53 µM) | relative viability (Bexarotene + Olaparib; first compound 8 µM) | relative viability (Bexarotene + Bortezomib; first compound 0.08 µM) | relative viability (Bexarotene + Bortezomib; first compound 0.253 µM) | relative viability (Bexarotene + Bortezomib; first compound 0.8 µM) | relative viability (Bexarotene + Bortezomib; first compound 2.53 µM) | relative viability (Bexarotene + Bortezomib; first compound 8 µM) | relative viability (Bexarotene + Trametinib; first compound 0.08 µM) | relative viability (Bexarotene + Trametinib; first compound 0.253 µM) | relative viability (Bexarotene + Trametinib; first compound 0.8 µM) | relative viability (Bexarotene + Trametinib; first compound 2.53 µM) | relative viability (Bexarotene + Trametinib; first compound 8 µM) | relative viability (Bexarotene + Pictilisib; first compound 0.08 µM) | relative viability (Bexarotene + Pictilisib; first compound 0.253 µM) | relative viability (Bexarotene + Pictilisib; first compound 0.8 µM) | relative viability (Bexarotene + Pictilisib; first compound 2.53 µM) | relative viability (Bexarotene + Pictilisib; first compound 8 µM)
LCLC-103H | 0.827 | 0.896 | 0.699 | 0.779 | 0.825 | 1.07 | 1.03 | 0.863 | 1.11 | 1.23 | 0.761 | 0.697 | 0.678 | 0.663 | 0.764 | 0.71 | 0.642 | 0.529 | 0.653 | 0.631
LOU-NH91 | 0.905 | 0.932 | 0.875 | 0.841 | 0.823 | 0.544 | 0.458 | 0.488 | 0.458 | 0.439 | 0.81 | 0.856 | 0.807 | 0.795 | 0.759 | 0.546 | 0.537 | 0.508 | 0.492 | 0.505
LU99A | 0.276 | 0.306 | 0.277 | 0.311 | 0.273 | 1.36 | 1.26 | 1.12 | 1.23 | 1.21 | 0.659 | 0.531 | 0.608 | 0.52 | 0.417 | 0.377 | 0.407 | 0.379 | 0.297 | 0.323
LXF-289 | 1.21 | 1.16 | 1.1 | 1.06 | 1.2 | 1.15 | 1.08 | 1.14 | 1.09 | 1.16 | 0.797 | 0.832 | 0.792 | 0.755 | 0.747 | 0.798 | 0.68 | 0.711 | 0.581 | 0.604
NCI-H23 | 0.344 | 0.341 | 0.289 | 0.294 | 0.3 | 1.1 | 1.03 | 1.02 | 0.9 | 0.962 | 0.447 | 0.435 | 0.395 | 0.364 | 0.347 | 0.623 | 0.489 | 0.44 | 0.516 | 0.52
NCI-H322M | 0.771 | 0.826 | 0.788 | 0.834 | 0.871 | 1.3 | 1.4 | 1.26 | 1.17 | 1.32 | 0.578 | 0.443 | 0.534 | 0.501 | 0.508 | 0.573 | 0.408 | 0.544 | 0.514 | 0.502
NCI-H441 | 0.608 | 0.61 | 0.628 | 0.599 | 0.495 | 0.472 | 0.633 | 0.592 |  | 0.619 | 0.568 | 0.481 | 0.669 | 0.527 | 0.633 | 0.628 | 0.511 | 0.524 | 0.482 | 0.616
NCI-H460 | 0.54 | 0.568 | 0.409 | 0.536 | 0.492 | 1.16 | 1.09 | 0.961 | 1.14 | 1.04 | 0.153 | 0.155 | 0.13 | 0.199 | 0.177 | 0.471 | 0.343 | 0.396 | 0.302 | 0.371
NCI-H520 | 0.368 | 0.347 | 0.313 | 0.316 | 0.332 | 0.805 | 0.588 | 0.518 | 0.385 | 0.534 | 0.668 | 0.63 | 0.742 | 0.662 | 0.643 | 0.324 | 0.244 | 0.293 | 0.286 | 0.235
NCI-H596 | 0.715 | 0.679 | 0.85 | 0.672 | 0.817 | 1.01 | 0.986 | 0.836 | 0.795 | 0.85 | 0.862 | 0.876 | 0.654 | 0.762 | 0.802 | 0.397 | 0.441 | 0.299 | 0.363 | 0.426
NCI-H647 | 0.725 | 0.629 | 0.64 | 0.447 | 0.464 | 0.943 | 1.05 | 0.89 | 1.1 | 1.02 | 0.663 | 0.46 | 0.335 | 0.433 | 0.44 | 0.378 | 0.356 | 0.429 |  | 0.358
NCI-H650 | 0.325 | 0.432 | 0.354 | 0.356 | 0.382 | 0.898 | 1.08 | 0.847 | 0.624 | 0.726 | 1.17 | 0.957 | 1.02 | 0.972 | 0.957 | 0.946 | 0.939 | 0.851 | 0.753 | 0.858
NCI-H661 | 0.769 | 0.756 | 0.73 | 0.751 | 0.707 | 0.807 | 0.807 | 0.803 | 0.81 | 0.761 | 0.58 | 0.523 | 0.544 | 0.543 | 0.495 | 0.438 | 0.362 | 0.397 | 0.362 | 0.35
NCI-H727 | 0.778 | 0.694 | 0.804 | 0.691 | 0.807 | 1.21 | 0.735 | 0.899 | 0.822 | 0.955 | 0.377 | 0.362 | 0.293 | 0.382 | 0.292 | 0.463 | 0.36 | 0.348 | 0.346 | 0.355
NCI-H838 | 0.809 | 0.784 | 0.74 | 0.725 | 0.745 | 0.995 | 1.16 | 0.803 | 0.777 | 0.949 | 0.551 | 0.611 | 0.545 | 0.657 | 0.585 | 0.557 | 0.5 | 0.51 | 0.638 | 0.578
NCI-H1355 | 0.805 | 0.76 | 0.781 | 0.785 | 0.778 | 1.17 | 1.35 | 1.21 | 1.32 | 1.14 | 0.468 | 0.445 | 0.373 | 0.479 | 0.457 | 0.604 | 0.622 | 0.358 | 0.561 | 0.486
